Experimental data taken from article PMC7018653 (mBio, 2020).
In brackets after ≈: the same amount, converted by molar mass. Where two headings read alike, the source gives them in different places. Residues, ends and D or L forms follow the SMILES beside them. *: point of attachment. βNA = c1ccc2cc(N*)ccc2c1

Key:
[1] = ref supplement refs 1-13 as given per antibiotic; cited from earlier work
in vitro [2] = conditions: Klebsiella pneumoniae, not told
in vitro [3] = conditions: Klebsiella pneumoniae, not told; remark: listed apart in the source
[4] = system: K. pneumoniae isolate (KP3800); assay: agar MIC according to CLSI guidelines; type: cell-based, Klebsiella pneumoniae
[5] = system: E. cloacae isolate (EC3800); assay: agar MIC according to CLSI guidelines; type: cell-based, Enterobacter cloacae
[6] = critically ill patients; ref supplement refs 1-13 as given per antibiotic; cited from earlier work
E. cloacae complex = conditions: cited from earlier work
[7] = system: polymyxin-susceptible E. cloacae isolate EC3800; conditions: for OM permeability of imipenem, fold faster than meropenem: E. cloacae EC3800
[8] = system: polymyxin-resistant K. pneumoniae isolate KP3800; conditions: for OM permeability coefficient, fold smaller in KP3800 compared to EC3800: KP3800 vs EC3800
[9] = basic group carrying the positive charge; no reference given; cited from earlier work
in vitro [10] = conditions: Enterobacter cloacae, not told, pH 7, Avg OM permeability coefficient (nm/s) ± SD
P. aeruginosa = conditions: not told; cited from earlier work
[11] = pH 7, Avg OM permeability coefficient (nm/s) ± SD, Cassette K. pneumoniae, efflux: with 25 mg/liter PAβN, two biological replicates
[12] = pH 7, Avg OM permeability coefficient (nm/s) ± SD, Cassette K. pneumoniae, three biological replicates
[13] = pH 7, Avg OM permeability coefficient (nm/s) ± SD, Discrete K. pneumoniae, three biological replicates
[14] = Cassette E. cloacae, efflux: with 25 mg/liter PAβN, two biological replicates
[15] = Cassette E. cloacae, three biological replicates
[16] = Discrete E. cloacae, three biological replicates

Question: With `C[C@H]1[C@H](NC(=O)/C(=N\OC(C)(C)C(=O)O)c2csc(N)n2)C(=O)N1S(=O)(=O)O` [Aztreonam, aztreonam] as the compound, how does the “Fraction bound in plasma (%)” value [1] read?
Answer: 51.5%

Question: What about the Papp (in vitro [2]; [11]) of the same compound?
Answer: < 0.3 ×10⁻⁶ cm/s

Question: What about the Papp (in vitro [2]; [12]) of the same compound?
Answer: < 0.3 ×10⁻⁶ cm/s

Question: And the Papp (in vitro [2]; [13])?
Answer: 0.864 ± 0.846 ×10⁻⁶ cm/s

Question: And the Papp (in vitro [3])?
Answer: 0.74 ×10⁻⁶ cm/s

Question: Which results are given for `CO/N=C(\C(=O)N[C@@H]1C(=O)N2C(C(=O)[O-])=C(C[N+]3(C)CCCC3)CS[C@H]12)c1csc(N)n1` [Cefepime, cefepime]?
Answer: MIC ([4]; Klebsiella pneumoniae): 128 µg/mL (≈ 266 µM); MIC ([5]; Enterobacter cloacae): 16 µg/mL (≈ 33.3 µM); Papp (in vitro [2]; [11]): < 0.3 ×10⁻⁶ cm/s; Papp (in vitro [2]; [12]): < 0.3 ×10⁻⁶ cm/s; Papp (in vitro [2]; [13]): 1.36 ± 0.926 ×10⁻⁶ cm/s

Question: For `CC(C)(O/N=C(\C(=O)N[C@@H]1C(=O)N2C(C(=O)[O-])=C(C[n+]3ccccc3)CS[C@H]12)c1csc(N)n1)C(=O)O` [Ceftazidime, ceftazidime], which MIC ([4]; Klebsiella pneumoniae) is on record?
Answer: 64 µg/mL (≈ 117 µM)

Question: What about the MIC ([5]; Enterobacter cloacae) of the same compound?
Answer: 16 µg/mL (≈ 29.3 µM)

Question: And the “Mean Clearance” value [6]?
Answer: 9.22 L/h

Question: What about the Papp (in vitro [2]; [11]) of the same compound?
Answer: < 0.3 ×10⁻⁶ cm/s

Question: And the Papp (in vitro [2]; [12])?
Answer: < 0.3 ×10⁻⁶ cm/s

Question: What about the Papp (in vitro [2]; [13]) of the same compound?
Answer: < 0.3 ×10⁻⁶ cm/s

Question: And the Papp (in vitro [2]; pH 7, Outer membrane permeability coefficients (nm/s), KP3800, discrete assay, average ± SD, three replicates (Table S2))?
Answer: < 0.3 ×10⁻⁶ cm/s

Question: What about the Papp (in vitro [2]; pH 7, permeability coefficient, KP3800, degradation too slow to be reliably determined in intact bacteria, 'likely') of the same compound?
Answer: < 0.3 ×10⁻⁶ cm/s

Question: And the permeability coefficients (E. cloacae complex)?
Answer: 0.1 ×10⁻⁶ cm/s

Question: Which MIC ([4]; Klebsiella pneumoniae) does the source give for `C[C@@H](O)[C@H]1C(=O)N2C(C(=O)O)=C(SCCN=CN)C[C@H]12` [Imipenem, imipenem] here?
Answer: 128 µg/mL (≈ 428 µM)

Question: And the MIC ([5]; Enterobacter cloacae)?
Answer: 4 µg/mL (≈ 13.4 µM)

Question: And the “OM permeability of imipenem, fold faster than meropenem” value [7]?
Answer: at least 7 fold

Question: And the “OM permeability of imipenem, fold faster than meropenem” value ([7]; listed as imipenem)?
Answer: ~7 fold

Question: What about the “OM permeability of imipenem, fold faster than aztreonam” value ([7]; EC3800) of the same compound?
Answer: ~2,000 fold

Question: And the “OM permeability of imipenem, fold faster than cefepime” value ([7]; EC3800)?
Answer: 258 fold

Question: What about the “OM permeability coefficient, fold smaller in KP3800 compared to EC3800” value [8] of the same compound?
Answer: approximately 5 fold

Question: And the “Mean Clearance” value [6]?
Answer: 12.4 L/h

Question: What about the “Fraction bound in plasma (%)” value [1] of the same compound?
Answer: 9.1%

Question: And the pKa2 [9]?
Answer: 10.6

Question: And the Papp (in vitro [10]; [14])?
Answer: 393 ×10⁻⁶ cm/s

Question: And the Papp (in vitro [10]; [15])?
Answer: 577 ×10⁻⁶ cm/s

Question: And the Papp (in vitro [10]; [16])?
Answer: 666 ×10⁻⁶ cm/s

Question: And the Papp (in vitro [2]; [11])?
Answer: 72.3 ± 12.4 ×10⁻⁶ cm/s

Question: And the Papp (in vitro [2]; [12])?
Answer: 90.7 ± 6.57 ×10⁻⁶ cm/s

Question: What about the Papp (in vitro [2]; [13]) of the same compound?
Answer: 204 ×10⁻⁶ cm/s

Question: And the “OM permeability of imipenem over meropenem, fold faster” value (P. aeruginosa)?
Answer: 2.74 fold

Question: With `C[C@@H](O)[C@H]1C(=O)N2C(C(=O)O)=C(S[C@@H]3CN[C@H](C(=O)N(C)C)C3)[C@H](C)[C@H]12` [Meropenem, meropenem] as the compound, how does the MIC ([4]; Klebsiella pneumoniae) read?
Answer: > 256 µg/mL

Question: And the MIC ([5]; Enterobacter cloacae)?
Answer: 4 µg/mL (≈ 10.4 µM)

Question: What about the “OM permeability coefficient, fold smaller in KP3800 compared to EC3800” value [8] of the same compound?
Answer: ~10 fold

Question: What about the “Mean Clearance” value [6] of the same compound?
Answer: 10.4 L/h

Question: And the pKa2 [9]?
Answer: 8.3

Question: What about the Papp (in vitro [10]; [14]) of the same compound?
Answer: 40.2 ± 6.98 ×10⁻⁶ cm/s

Question: What about the Papp (in vitro [10]; [15]) of the same compound?
Answer: 84.3 ± 29.2 ×10⁻⁶ cm/s

Question: And the Papp (in vitro [10]; [16])?
Answer: 72.9 ± 15.5 ×10⁻⁶ cm/s

Question: And the Papp (in vitro [2]; [11])?
Answer: 5.75 ± 2.17 ×10⁻⁶ cm/s

Question: And the Papp (in vitro [2]; [12])?
Answer: 9.07 ± 0.689 ×10⁻⁶ cm/s

Question: And the Papp (in vitro [2]; [13])?
Answer: 8.33 ± 0.917 ×10⁻⁶ cm/s

Question: Which “effect of efflux pump inhibitor on OM permeability estimates of the β-lactams” value ([7]; EC3800, PAβN 25 mg/liter, cassette assay) does the source give for `N=C(N)NCCC[C@H](NC(=O)[C@@H](N)Cc1ccccc1)C(=O)Nc1ccc2ccccc2c1` [PAβN, phenylalanine-arginine β-naphthylamide] (H-Phe-Arg-βNA) here?
Answer: did not significantly affect

Question: What about the “effect of efflux pump inhibitor on OM permeability estimates of the β-lactams” value ([8]; KP3800, PAβN 25 mg/liter, cassette assay) of the same compound?
Answer: did not significantly affect

Question: With polymyxin as the compound, how does the MIC ([4]; KP3800) read?
Answer: 64 µg/mL

Question: What about the MIC ([5]; EC3800) of the same compound?
Answer: 0.5 µg/mL
